Data from patent US20230346670A1, “Prebiotic Oral Care Compositions and Methods” (Colgate-Palmolive Company, priority 2020, published 2023).

How the values were obtained:
Type in all cases: cell-based
[1] = tested on: P. gingivalis; experiment: Multi-species biofilm composition, absolute abundance (Geq/mL); conditions: repeated rinsing
Summary of the method: (§1)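 Biofilms grown vertically on CAD-HA disks in the Amsterdam Active Adhesion model, 24 h at 37° C., 170 rpm, microaerophilic (6% O2, 7% CO2, 7% H2, 80% N2). Then rinsed 3 times a day for 3 minutes at 1 M substrate for 3 days; PBS (pH 5.7) control. Values are log(Geq/mL), mean ± SD, n = 3.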

[2] = tested on: S. mitis; experiment: as above; conditions: repeated rinsing
[3] = tested on: S. oralis; experiment: as above; conditions: repeated rinsing
Summary of the method: as §1

[4] = tested on: A. actinomycetemcomitans; experiment: as above; conditions: repeated rinsing
[5] = tested on: A. naeslundii; experiment: as above; conditions: repeated rinsing
Summary of the method: as §1

[6] = tested on: S. gordonii; experiment: as above; conditions: repeated rinsing
Summary of the method: as §1

[7] = tested on: S. sobrinus; experiment: as above; conditions: repeated rinsing
Summary of the method: as §1

[8] = tested on: P. intermedia; experiment: as above; conditions: repeated rinsing
Summary of the method: as §1

[9] = tested on: P. intermedia virulence genes; experiment: Virulence gene expression in multi-species biofilm (SYBR RT-qPCR); conditions: relative to control = 1
Summary of the method: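 Multi-species biofilms grown 24 h on CAD-HA disks (37° C., microaerophilic), then rinsed 3×/day for 3 min over 3 days with substrate at 1 M or 1% (w/v) in PBS; PBS pH 5.7 as control. Expression of 33 genes by SYBR RT-qPCR, normalized to housekeeping genes; fold change by 2^-ΔΔCt, geometric mean (95% C.I.), n = 3.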

[10] = tested on: human oral keratinocytes (HOK-18A); experiment: Inflammatory mediator gene expression in keratinocytes exposed to substrate-treated biofilms (SYBR RT-qPCR); conditions: for fold change in IL-1β gene expression, geometric mean (C.I.) / fold change in IL-6 gene expression, geometric mean (C.I.) / fold change in IL-8 gene expression, geometric mean (C.I.) / fold change in MMP-8 gene expression, geometric mean (C.I.) / fold change in TNF-α gene expression, geometric mean (C.I.): relative to control, n = 3
Summary of the method: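 HOK-18A keratinocytes were exposed to multi-species biofilms treated with substrates dissolved in PBS at 1 M or 1% (w/v). Inflammatory mediator expression was measured by SYBR RT-qPCR against β-actin, with fold change versus control by 2^-ΔΔCt, reported as geometric mean (n = 3).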

[11] = tested on: multi-species biofilms; experiment: Organic acid levels in supernatant of multi-species biofilms (ion chromatography); conditions: >0 production, <0 consumption, n = 3
Summary of the method: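 Biofilms grown 24 h on calcium-deficient hydroxyapatite disks (Amsterdam Active Adhesion model, 37° C., microaerophilic), then rinsed in substrate solution 3 min, three times daily for 3 days; PBS pH 5.7 without substrate as negative control. Organic acids in filter-sterilized supernatant quantified by ion chromatography.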

[12] = tested on: human oral keratinocytes (HOK-18A); experiment: IL-8 levels in supernatant of keratinocytes exposed to substrate-treated biofilms; conditions: biofilms treated with substrate 1 M; n = 3
Method: Cultures of immortalized human oral keratinocytes (HOK-18A) are grown. […] The IL-8 levels in the cellular supernatant are determined as well. RNA is converted to cDNA and relative expression of inflammatory mediator genes is determined as described above with respect to the cellular housekeeping gene β-actin.

[13] = lower part of Table 6d, head prints 1 M (lower part 1%(w/v))
[14] = upper part of Table 6d, substrate 1 M, n = 3
[15] = HOK-18A exposed to biofilms treated with substrate 1% (w/v)
[16] = HOK-18A exposed to biofilms treated with substrate 1 M
[17] = substrate 1 M, listed as α-D-lactose

## OC[C@H]1O[C@@H](O[C@H]2[C@H](O)[C@@H](O)[C@@H](O)O[C@@H]2CO)[C@H](O)[C@@H](O)[C@H]1O [D-lactose, α-D-lactose]
[1]; substrate 1% (w/v)
  absolute abundance of P. gingivalis (Pg), mean ± SD log (Geq/mL): 6.93 ± 0.10 log (Geq/mL)
[1]; substrate 1 M in PBS, n = 3
  absolute abundance of P. gingivalis (Pg), mean ± SD log (Geq/mL): 4.26 ± 0.51^∗ log (Geq/mL)
[2]; substrate 1% (w/v)
  absolute abundance of S. mitis, mean ± SD log (Geq/mL): 2.65 ± 0.00 log (Geq/mL)
[2]; substrate 1 M in PBS, n = 3
  absolute abundance of S. mitis, mean ± SD log (Geq/mL): 3.17 ± 0.75 log (Geq/mL)
[3]; substrate 1% (w/v)
  absolute abundance of S. oralis, mean ± SD log (Geq/mL): 6.6 ± 0.17 log (Geq/mL)
[3]; substrate 1 M in PBS, n = 3
  absolute abundance of S. oralis, mean ± SD log (Geq/mL): 7.45 ± 0.46 log (Geq/mL)
[4]; substrate 1% (w/v)
  absolute abundance of A. actinomycetemcomitans (Aa), mean ± SD log (Geq/mL): 9.44 ± 0.41 log (Geq/mL)
[4]; substrate 1 M in PBS, n = 3
  absolute abundance of A. actinomycetemcomitans (Aa), mean ± SD log (Geq/mL): 7.87 ± 0.04^∗ log (Geq/mL)
[5]; substrate 1% (w/v)
  absolute abundance of A. naeslundii (An), mean ± SD log (Geq/mL): 7.75 ± 0.24 log (Geq/mL)
[5]; substrate 1 M in PBS, n = 3
  absolute abundance of A. naeslundii (An), mean ± SD log (Geq/mL): 4.86 ± 0.19^∗ log (Geq/mL)
[6]; substrate 1% (w/v)
  absolute abundance of S. gordonii, mean ± SD log (Geq/mL): 8.4 ± 0.11 log (Geq/mL)
[6]; substrate 1 M in PBS, n = 3
  absolute abundance of S. gordonii, mean ± SD log (Geq/mL): 9.31 ± 0.41 log (Geq/mL)
[7]; substrate 1% (w/v)
  absolute abundance of S. sobrinus, mean ± SD log (Geq/mL): 5.27 ± 0.24 log (Geq/mL)
[7]; substrate 1 M in PBS, n = 3
  absolute abundance of S. sobrinus, mean ± SD log (Geq/mL): 7.82 ± 0.11^∗ log (Geq/mL)
[8]; substrate 1% (w/v)
  absolute abundance of P. intermedia (Pi), mean ± SD log (Geq/mL): 8.13 ± 0.25 log (Geq/mL)
[8]; substrate 1 M in PBS, n = 3
  absolute abundance of P. intermedia (Pi), mean ± SD log (Geq/mL): 4.05 ± 0.61^∗ log (Geq/mL)
[9]; [13]
  fold change in DnaJ expression, geometric mean (95% C.I.): 0.29 (0.18-0.47)^∗ fold
  fold change in DnaK expression, geometric mean (95% C.I.): 1.16 (0.55-2.44) fold
  fold change in ECF expression, geometric mean (95% C.I.): 0.26 (0.12-0.58)^∗ fold
  fold change in GroES expression, geometric mean (95% C.I.): 0.91 (0.41-2.03) fold
  fold change in HtpG expression, geometric mean (95% C.I.): 0.40 (0.15-1.07)^∗ fold
  fold change in KpsD expression, geometric mean (95% C.I.): 0.72 (0.39-1.35) fold
  fold change in adpc expression, geometric mean (95% C.I.): 0.41 (0.30-0.55) fold
  fold change in clpB expression, geometric mean (95% C.I.): 0.85 (0.23-3.13) fold
  fold change in inpA expression, geometric mean (95% C.I.): 0.52 (0.41-0.66)^∗ fold
  fold change in phg expression, geometric mean (95% C.I.): 0.39 (0.19-0.77)^∗ fold
[9]; [14]
  fold change in DnaJ expression, geometric mean (95% C.I.): 0.25 (0.05-1.25)^∗ fold
  fold change in DnaK expression, geometric mean (95% C.I.): 0.34 (0.28-0.42)^∗ fold
  fold change in ECF expression, geometric mean (95% C.I.): 1.72 (0.56-5.25) fold
  fold change in GroES expression, geometric mean (95% C.I.): 0.29 (0.09-0.91)^∗ fold
  fold change in HtpG expression, geometric mean (95% C.I.): 0.19 (0.12-0.31)^∗ fold
  fold change in KpsD expression, geometric mean (95% C.I.): 0.62 (0.21-1.87) fold
  fold change in adpc expression, geometric mean (95% C.I.): 0.30 (0.23-0.39)^∗ fold
  fold change in clpB expression, geometric mean (95% C.I.): 0.38 (0.08-1.75)^∗ fold
  fold change in inpA expression, geometric mean (95% C.I.): 0.47 (0.27-0.82)^∗ fold
  fold change in phg expression, geometric mean (95% C.I.): 0.12 (0.08-0.18)^∗ fold
[10]; [15]
  fold change in IL-1β gene expression, geometric mean (C.I.): 0.89 (0.54-1.45) fold
  fold change in IL-6 gene expression, geometric mean (C.I.): 0.74 (0.56-0.97)^∗ fold
  fold change in IL-8 gene expression, geometric mean (C.I.): 1.13 (0.71-1.80) fold
  fold change in MMP-8 gene expression, geometric mean (C.I.): 0.70 (0.62-0.79) fold
  fold change in TNF-α gene expression, geometric mean (C.I.): 0.81 (0.50-1.33) fold
[10]; [16]
  fold change in IL-1β gene expression, geometric mean (C.I.): 0.5 (0.38-0.65)^∗ fold
  fold change in IL-6 gene expression, geometric mean (C.I.): 0.33 (0.12-0.88)^∗ fold
  fold change in IL-8 gene expression, geometric mean (C.I.): 0.03 (0.02-0.05)^∗ fold
  fold change in MMP-8 gene expression, geometric mean (C.I.): 0.78 (0.38-1.61) fold
  fold change in TNF-α gene expression, geometric mean (C.I.): 0.39 (0.23-0.66)^∗ fold
[10]; substrate 1 M
  downregulation of IL-1β gene expression: 2 fold
  downregulation of IL-6 gene expression: 3 fold
  downregulation of TNF-α gene expression: 2.5 fold
[11]; substrate 1% (w/v)
  acetate level in biofilm supernatant, mean ± SD: 367 ± 33 mg/L
  butyrate level in biofilm supernatant, mean ± SD: 2061 ± 121 mg/L
  formate level in biofilm supernatant, mean ± SD: 3929 ± 253 mg/L
  lactate level in biofilm supernatant, mean ± SD: -125 ± 0 mg/L
  propionate level in biofilm supernatant, mean ± SD: 2140 ± 141 mg/L
[11]; substrate 1 M
  acetate level in biofilm supernatant, mean ± SD: 881 ± 73^∗ mg/L
  butyrate level in biofilm supernatant, mean ± SD: 0±0^∗ mg/L
  formate level in biofilm supernatant, mean ± SD: 84 ± 9^∗ mg/L
  lactate level in biofilm supernatant, mean ± SD: 3791 ± 169^∗ mg/L
  propionate level in biofilm supernatant, mean ± SD: 1306 ± 175^∗ mg/L
[11]; [17]
  acetate level in biofilm supernatant, mean ± SD: 881 ± 73 mg/L
  butyrate level in biofilm supernatant, mean ± SD: 0 ± 0 mg/L
  formate level in biofilm supernatant, mean ± SD: 84 ± 9 mg/L
  lactate level in biofilm supernatant, mean ± SD: 3791 ± 169 mg/L
  propionate level in biofilm supernatant, mean ± SD: 1306 ± 175 mg/L
[12]
  Mean ± SD IL-8 levels in HOK-18A supernatant: < LOD^∗
